Tests used:
[1] = tested on: Vero cells; assay: Cytotoxicity against Vero cells; format: cell-based, African monkey
[2] = tested on: Cryptococcus neoformans; assay: Antimicrobial assay, antifungal; conditions: compared to control drug amphotericin B
[3] = tested on: National Cancer Institute's 60 cultured human tumor cell lines; assay: NCI 60 human tumor cell line screen; conditions: mean graph midpoint; concentration of total growth inhibition
[4] = tested on: Plasmodium falciparum D6 clone (chloroquine-sensitive); assay: In vitro antimalarial assay; format: cell-based; conditions: D6, 72 h, read-out: Plasmodium falciparum D6 clone IC50
[5] = tested on: Plasmodium falciparum W2 clone (chloroquine-resistant); assay: In vitro antimalarial assay; format: cell-based; conditions: W2, 72 h, read-out: Plasmodium falciparum W2 clone IC50

| SMILES | Cytotoxicity Vero TC50 ([1]; African monkey, 48 h) | also measured |
| --- | --- | --- |
| C[C@H]1[C@@H](Oc2cccc(N[C@@H]3[C@H](C)O[C@@H]4O[C@@]5(C)CC[C@H]6[C@H](C)CC[C@@H]3[C@@]46OO5)c2)O[C@@H]2O[C@@]3(C)CC[C@H]4[C@H](C)CC[C@@H]1[C@@]24OO3 [Compound 7] | > 7,417 nM | In vitro antifungal activity (in words) [2]: enhanced activity compared to the control drug, amphotericin B |
| C[C@H]1[C@@H](OCC(CO[C@H]2O[C@@H]3O[C@@]4(C)CC[C@H]5[C@H](C)CC[C@@H]([C@H]2C)[C@@]35OO4)OS(C)(=O)=O)O[C@@H]2O[C@@]3(C)CC[C@H]4[C@H](C)CC[C@@H]1[C@@]24OO3 (stereo partly shown) [Compound 14] | 6,403 nM |  |
| C[C@H]1[C@@H](OCC(=O)CO)O[C@@H]2O[C@@]3(C)CC[C@H]4[C@H](C)CC[C@@H]1[C@@]24OO3 [Compound 15] | > 13,355 nM |  |
| C[C@H]1[C@@H](O)O[C@@H]2O[C@@]3(C)CC[C@H]4[C@H](C)CC[C@@H]1[C@@]24OO3 [Compound 2, Dihydroartemisinin, reference compound] | 1,407 nM |  |
| C[C@H]1[C@@H](OC/C=C\CO[C@H]2O[C@@H]3O[C@@]4(C)CC[C@H]5[C@H](C)CC[C@@H]([C@H]2C)[C@@]35OO4)O[C@@H]2O[C@@]3(C)CC[C@H]4[C@H](C)CC[C@@H]1[C@@]24OO3 [Compound 8] | 709 nM |  |
| C[C@@H]1CC[C@H]2[C@@H](C)C(=O)O[C@@H]3O[C@@]4(C)CC[C@@H]1[C@]32OO4 [Compound 1, Artemisinin, reference compound] | > 1,686 nM |  |
| CC1=CO[C@@H]2O[C@]3(C)CC[C@H]4[C@H](C)CC[C@@H]1[C@@]24OO3 [Compound 3, Anhydrodihydroartemisinin, reference compound] | > 1,787 nM |  |
| C[C@H]1[C@@H](OCc2cc(O)cc(O[C@H]3O[C@@H]4O[C@@]5(C)CC[C@H]6[C@H](C)CC[C@@H]([C@H]3C)[C@@]46OO5)c2)O[C@@H]2O[C@@]3(C)CC[C@H]4[C@H](C)CC[C@@H]1[C@@]24OO3 [Compound 6] | > 7,075 nM | MG_MID TGI [3]: 2820 nM |
| C[C@H]1[C@@H](OCC(=O)CO[C@H]2O[C@@H]3O[C@@]4(C)CC[C@H]5[C@H](C)CC[C@@H]([C@H]2C)[C@@]35OO4)O[C@@H]2O[C@@]3(C)CC[C@H]4[C@H](C)CC[C@@H]1[C@@]24OO3 [Compound 4] | 257 nM |  |
| C[C@H]1[C@@H](OCC[C@@H](CO[C@H]2O[C@@H]3O[C@@]4(C)CC[C@H]5[C@H](C)CC[C@@H]([C@H]2C)[C@@]35OO4)O[C@H]2O[C@@H]3O[C@@]4(C)CC[C@H]5[C@H](C)CC[C@@H]([C@H]2C)[C@@]35OO4)O[C@@H]2O[C@@]3(C)CC[C@H]4[C@H](C)CC[C@@H]1[C@@]24OO3 [Compound 18] | 5,259 nM |  |
| CCN(CC)CCCC(C)Nc1ccnc2cc(Cl)ccc12 (stereo not shown) [chloroquine] |  | IC50 [4]: 41.6 nM; IC50 [5]: 378 nM; Cytotoxicity Vero TC50 ([1]; Table 2, concentration toxic to 50% of the cells): > 14,881 nM |
| C[C@H]1[C@@H](O[C@@H](CO[C@H]2O[C@@H]3O[C@@]4(C)CC[C@H]5[C@H](C)CC[C@@H]([C@H]2C)[C@@]35OO4)[C@H](O)CO)O[C@@H]2O[C@@]3(C)CC[C@H]4[C@H](C)CC[C@@H]1[C@@]24OO3 [Compound 12] | 825 nM | In vitro antifungal activity (in words) [2]: enhanced activity compared to the control drug, amphotericin B |
| C[C@H]1[C@@H](OCC(O)CO[C@H]2O[C@@H]3O[C@@]4(C)CC[C@H]5[C@H](C)CC[C@@H]([C@H]2C)[C@@]35OO4)O[C@@H]2O[C@@]3(C)CC[C@H]4[C@H](C)CC[C@@H]1[C@@]24OO3 (stereo partly shown) [Compound 5] | 384 nM |  |
| C[C@H]1[C@@H](OC[C@@H]2O[C@@H]2CO[C@H]2O[C@@H]3O[C@@]4(C)CC[C@H]5[C@H](C)CC[C@@H]([C@H]2C)[C@@]35OO4)O[C@@H]2O[C@@]3(C)CC[C@H]4[C@H](C)CC[C@@H]1[C@@]24OO3 [Compound 13] | > 7,475 nM |  |
| C=C[C@@H](CO[C@H]1O[C@@H]2O[C@@]3(C)CC[C@H]4[C@H](C)CC[C@@H]([C@H]1C)[C@@]24OO3)O[C@H]1O[C@@H]2O[C@@]3(C)CC[C@H]4[C@H](C)CC[C@@H]([C@H]1C)[C@@]24OO3 [Compound 9] | 773 nM |  |
| C[C@H]1[C@@H](OC/C=C\CO)O[C@@H]2O[C@@]3(C)CC[C@H]4[C@H](C)CC[C@@H]1[C@@]24OO3 [Compound 17] | > 13,430 nM | In vitro antifungal activity (in words) [2]: enhanced activity compared to the control drug, amphotericin B |
| C[C@H]1[C@@H](OCC[C@H](O)CO[C@H]2O[C@@H]3O[C@@]4(C)CC[C@H]5[C@H](C)CC[C@@H]([C@H]2C)[C@@]35OO4)O[C@@H]2O[C@@]3(C)CC[C@H]4[C@H](C)CC[C@@H]1[C@@]24OO3 [Compound 10] | > 7,452 nM |  |
| C[C@H]1[C@@H](OC[C@@H](O)[C@@H](O)CO[C@H]2O[C@@H]3O[C@@]4(C)CC[C@H]5[C@H](C)CC[C@@H]([C@H]2C)[C@@]35OO4)O[C@@H]2O[C@@]3(C)CC[C@H]4[C@H](C)CC[C@@H]1[C@@]24OO3 [Compound 11] | > 7,270 nM |  |
| C[C@H]1[C@@H](OCc2cc(O)cc(O)c2)O[C@@H]2O[C@@]3(C)CC[C@H]4[C@H](C)CC[C@@H]1[C@@]24OO3 [Compound 16] | > 11,711 nM |  |

Reference: PMC2824924 (Bioorganic & medicinal chemistry, 2009)
